We go through one substance from paper PMC2867246 (Biochemistry, 2010).

Experiment [1] concerns N-type calcium channels (CaV2.2). Type of experiment: cell-based. To be noted: pH 7.4.
In a further experiment the test system is Swiss Webster mice. Particulars: mouse, in vivo.
The subject of another experiment is CaV2.2. To be noted: cited from earlier work.

With ω-conotoxin GVIA, the “percentage block of N-current” value in experiment [1] was 98.5 ± 1.0 percentage. In the experiment with Swiss Webster mice, the behavior after injection result is reported as “shaking syndrome”, the “behavior at higher concentrations” value is on record as “passive behavior with a backwards leg-extension” and the “duration of shaking behavior” value is on record as “lasted for more than a day”. The “affinity for CaV2.2, in words” value in the experiment on CaV2.2 is “high affinity”.
